Laboratory results from US9296691B2, “Inhibitors of p75 receptor and their uses” (Horacio Uri Saragovi, priority 2010, dated 2016).

Experiments:
TrkA-Fc = target: T1, TrkA-Fc (Homo sapiens, UniProt P04629); assay: Competitive ELISA, TrkA-Fc binding to immobilized NGF (selectivity control)
T1 construct: purchased R&D
Experimental: (§1) The effect of compounds I-B and LM-24 on the binding between NGF and p75 was tested in competitive ELISA assays, where the antagonists prevent soluble p75 from binding to immobilized NGF. The selectivity of antagonism was evaluated by lack of effect upon NGF-TrkA or lack of effect between NGF and anti-NGF monoclonal antibody (mAb) NGF30 interactions (FIG. 1A).
(§2) Competitive ELISAs were performed as described (Saragovi et al., 1998). The procedure immobilized 50 ng/well NGF, or pro-NGF (Alomone Labs, Israel) onto polystyrene 96-well microtest plates, with washing and blocking with binding buffer (BB; phosphate buffered saline containing 0.5% bovine serum albumin). The following primary reagents in BB were added: recombinant chimeric p75-Fc or recombinant chimeric TrkA-Fc (R&D), or anti-NGF mAb NGF30 (Saragovi et al., 1998); each at 50 nM. The competitors I-B and the other test compounds (or control LM-24) were added at the indicated concentrations, and the plates were incubated for 45 minutes. After washing 3× in BB, HRP-conjugated secondary reagents (Sigma) were added for 30 min (goat anti-human Fc for p75-Fc and for TrkA-Fc; and goat anti-rat Ab for NGF30 mAb), and then wells were washed 3× in BB and 1× in PBS. Peroxidase activity was determined colorimetrically using the substrate TMB One Solution (Promega). The reaction was stopped with 0.5 N H2SO4 and the plates were read at 450 nm (Benchmark Plus, Bio-Rad). Assays were repeated n>4 times, with replicates of 4 wells each assay. […] Wells with no NGF immobilized but with all other reagents added were treated as background (<15% of maximal signals) and standardized to 0% binding.

anti-NGF mAb NGF30 = assay: Competitive ELISA, anti-NGF mAb NGF30 binding to immobilized NGF (selectivity control)
Experimental: as §1, §2

TNF-α = assay: Glaucoma model, retinal TNF-α by western blot; type: in vivo, rat; conditions: intravitreal injection at glaucoma day 14, measured 3 and 5 days later
Experimental: After 14-days of glaucoma eyes were injected intravitreally with p75NTR antagonists, and the levels of TNF-α and α2M were measured three days later (e.g. day 17 of glaucoma) and five days later (e.g. day 19 of glaucoma) (FIG. 3A).
Both retinas of each animal were detergent solubilized, and studied in independent gels standardized to loading control. The ratio of the glaucoma eye ±treatment versus the normal contralateral eye was calculated, and results were averaged ±sem, n=3 animals per group. In glaucoma, all drug treatments were done at day 14 of hypertension. In one group the retinas were harvested at day 17 of glaucoma (3 days after intraocular injection) and in the other group the retinas were harvested at day 19 of glaucoma (5 days after intraocular injection). Normal eyes treated with NGF-A were collected in the indicated days. After SDS-PAGE and western transfer, membranes were immunoblotted with rabbit polyclonal antibodies against TNF-α (Preprotech) or α2M (Santa Cruz) at a 1:3000 dilution. Goat anti-rabbit secondary antibodies conjugated to horseradish peroxidase (Sigma) were used at a 1:10,000 dilution. Loading was controlled with antibodies to β-actin (Sigma). For digital quantification, membranes were scanned and analyzed using ImageJ software.

[1] = competitive ELISA, FIG. 1A, compound at 30 μM

T1 sequence (P04629 33-423 limits assumed): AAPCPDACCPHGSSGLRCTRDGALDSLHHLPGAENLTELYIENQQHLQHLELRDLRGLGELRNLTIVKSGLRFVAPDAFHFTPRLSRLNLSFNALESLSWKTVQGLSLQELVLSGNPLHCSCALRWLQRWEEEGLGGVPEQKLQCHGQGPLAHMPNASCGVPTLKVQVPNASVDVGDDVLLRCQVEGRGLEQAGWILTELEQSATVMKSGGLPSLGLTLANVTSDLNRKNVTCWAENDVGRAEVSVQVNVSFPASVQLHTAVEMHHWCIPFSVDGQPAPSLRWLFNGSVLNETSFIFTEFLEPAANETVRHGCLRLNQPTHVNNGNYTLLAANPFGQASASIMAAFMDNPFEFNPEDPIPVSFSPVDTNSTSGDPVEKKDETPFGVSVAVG

## CC(C)NC(=O)N(C(=O)Cn1cnc2c1c(=O)n(C)c(=O)n2C)C(C)C [I-B, 1,3-Diisopropyl-1-[2-(1,3-dimethyl-2,6-dioxo-1,2,3,6-tetrahydro-purin-7-yl)-acetyl]-urea]
TrkA-Fc; binding to immobilized NGF, no cpd = 100%, TrkA-Fc 50 nM, as described for FIG. 1A
  TrkA-Fc binding AVERAGE: 107%
TrkA-Fc; [1]
  effect on binding of TrkA to NGF: did not interfere
anti-NGF mAb NGF30; binding to immobilized NGF, no cpd = 100%, mAb NGF30 50 nM, as described for FIG. 1A
  NGF30 binding AVERAGE: 88%
anti-NGF mAb NGF30; [1]
  effect on mAb NGF30 binding to NGF: did not interfere
TNF-α
  TNF-α level in glaucomatous retina, fold-change versus normal retina: time-dependent inhibition
